Laboratory results as given in article PMC4900628, “Critical Evaluation of P2X7 Receptor Antagonists in Selected Seizure Models” (PLoS ONE, 2016).
Like-named read-outs stand apart in the source and are kept apart here.

Key:
Format in all cases: in vivo
[1] = test system: electroshock-induced tonic (hindlimb extension) seizures; experiment: Maximal electroshock seizure threshold test (MES-T); conditions: mice; carbamazepine 7 mg/kg i.p. alone, 30 min before
Description: The stimulus train was applied via ear-clip electrodes (sinusoidal pulses 4-14 mA, 50 Hz, 0.2 s duration) by means of a constant current stimulator (rodent-shocker type 221; Hugo Sachs Elektronik, March-Hugstetten, Germany). […] Groups of 20 mice were used. Control groups, which received the corresponding vehicle, were tested together with the compound-treated groups on the same experimental day. Current intensity-effect curves were obtained on the basis of the number of animals responding with the endpoint at the corresponding current value. The results are calculated as convulsive current fifty (CC50) values (current intensity in mA, necessary to produce tonic hindlimb extension in 50% of the mice tested) including the confidence limits for 95% probability. […] Chemicals, Toronto, Canada) was slowly added. The pH was adjusted with 1N NaOH (similar amount of NaOH as HCl), all with continuous stirring. […] The drug solutions or suspensions were prepared immediately before use; all doses refer to the salts. Animals in the control group received equivalent volumes of the vehicle (in mice always 10 ml/kg, in rats 1 ml/kg [JNJ], 3 ml/kg [AFC] or 4 ml/kg [BBG, TIIAS], depending on the solubility of the different compounds). Doses and peak time effects were selected on the basis of effective doses from corresponding in vivo studies in the literature: BBG (e.g.), tanshinone IIA (e.g.) and from manufacturer's experimental data: AFC, JNJ (see, [80]). Data were analysed using SigmaPlot (vers. 12.0, Systat Software, Erkrath, Germany) and SPSS (IBM SPSS Statistics 20, […], Germany), respectively. Results are expressed as mean ± SEM. […] In the PTZ-T, the number of animals in the group with clonic seizures and the latency time were analysed using Fisher's exact probability test and the Mann-Whitney rank sum test, respectively. […] In the PTZ-kindling model, the mean seizure stage within a group was calculated in relation to the number of PTZ-injections. […] In fully kindled rats, the calculated mean seizure stage within a group after vehicle- and compound-treatment were compared using a paired t-test. […]

[2] = test system: PTZ-induced seizures in fully PTZ-kindled rats; experiment: PTZ-induced seizures in fully kindled rats; conditions: fully kindled rats; 20 mg/kg i.p.; pre-drug (vehicle) value 4.1
Excerpt: Results were expressed as mean seizure stages of a tested group in which the seizure behaviour after vehicle treatment (vehicle seizure stage) and after compound treatment (compound seizure stage), examined 3-4 days later, was matched. For comparison, the effectiveness of two antiepileptic drugs (carbamazepine and valproate) was also investigated. […] Chemicals, Toronto, Canada) was slowly added. The pH was adjusted with 1N NaOH (similar amount of NaOH as HCl), all with continuous stirring. […] The drug solutions or suspensions were prepared immediately before use; all doses refer to the salts. Animals in the control group received equivalent volumes of the vehicle (in mice always 10 ml/kg, in rats 1 ml/kg [JNJ], 3 ml/kg [AFC] or 4 ml/kg [BBG, TIIAS], depending on the solubility of the different compounds). Doses and peak time effects were selected on the basis of effective doses from corresponding in vivo studies in the literature: BBG (e.g.), tanshinone IIA (e.g.) and from manufacturer's experimental data: AFC, JNJ (see, [80]). Data were analysed using SigmaPlot (vers. 12.0, Systat Software, Erkrath, Germany) and SPSS (IBM SPSS Statistics 20, […], Germany), respectively. Results are expressed as mean ± SEM. […] In the MES-T, the current intensity inducing tonic hindlimb extensions in 50% of the mice (CC50 values with confidence limits for 95% probability) and the statistical significance was calculated using Probit analysis (SPSS). […] In the PTZ-T, the number of animals in the group with clonic seizures and the latency time were analysed using Fisher's exact probability test and the Mann-Whitney rank sum test, respectively. For multiple comparisons of the latency time a one-way ANOVA with the Holm-Sidak post hoc test was used. The influence of AFC on the plasma and brain concentrations of the antiepileptic drugs was statistical compared using the same procedure. In the PTZ-kindling model, the mean seizure stage within a group was calculated in relation to the number of PTZ-injections. Statistical comparison between vehicle- and compound-treated groups in this model was performed with two-way repeated measures ANOVA, followed by the Holm-Sidak post hoc test. The mean number of PTZ-injections needed to produce the first generalized seizure (≥ stage 3 convulsions) in the vehicle- versus compound-treated groups was statistically compared using a Mann-Whitney rank sum test. In fully kindled rats, the calculated mean seizure stage within a group after vehicle- and compound-treatment were compared using a paired t-test. P < 0.05 was the accepted minimum level of significance.

[3] = Plasma and brain concentration in mice (co-administration with AEDs); conditions: MES-T; for concentration at 30 min: mouse, brain, intraperitoneal, CBZ 7 mg/kg i.p.
Description: Blood was collected intracardially by heart […] pipettes supplemented with heparin-Na (ratiopharm, Ulm, Germany; 10μl of 5.000 I.U./ml) and separated by centrifuging (1500xg for 10 min) at 6-8°C. The plasma was stored at -20°C in plastic tubes. After blood sample collection, rats were decapitated and brains were quickly dissected. After removing the adherent blood by tissue paper and cutting off the cerebellum, the samples were fresh frozen using liquid nitrogen. Brain tissue was stored at -80°C and delivered to the different laboratories on dry ice. For mice (groups with n = 6), a similar procedure was used for the preparation of plasma and brain samples. In experiments in which AFC was co-administered with carbamazepine or ethosuximide, drug concentrations in plasma and brain were estimated to detect potential pharmacokinetic interactions. Samples from experiments with AFC were analysed at the Lead Discovery Center (Dortmund, Germany). Briefly, AFC, carbamazepine and ethosuximide were extracted from plasma and homogenized brain by protein precipitation using acetonitrile. Resulting filtrates were analysed by liquid chromatography tandem-mass spectrometry (LC-MS/MS) using a Prominence UFLC system (Shimadzu, Duisburg, Germany) coupled to a QTrap 5500 instrument (ABSciex, Darmstadt, Germany). The compounds were separated on a Zorbax Eclipse Plus C18 column (Agilent Technologies, Santa Clara, CA, USA) with an acetonitrile/water gradient containing 0.1% formic acid as solvent. Chromatographic conditions and mass spectrometer parameters were optimized for each analyte. Plasma and brain concentrations of the compounds were calculated by means of a standard curve. Data were analysed using SigmaPlot (vers. 12.0, Systat Software, Erkrath, Germany) and SPSS (IBM SPSS Statistics 20, […], Germany), respectively. Results are expressed as mean ± SEM. […] In the MES-T, the current intensity inducing tonic hindlimb extensions in 50% of the mice (CC50 values with confidence limits for 95% probability) and the statistical significance was calculated using Probit analysis (SPSS). […] In the PTZ-T, the number of animals in the group with clonic seizures and the latency time were analysed using Fisher's exact probability test and the Mann-Whitney rank sum test, respectively. For multiple comparisons of the latency time a one-way ANOVA with the Holm-Sidak post hoc test was used. The influence of AFC on the plasma and brain concentrations of the antiepileptic drugs was statistical compared using the same procedure. In the PTZ-kindling model, the mean seizure stage within a group was calculated in relation to the number of PTZ-injections. Statistical comparison between vehicle- and compound-treated groups in this model was performed with two-way repeated measures ANOVA, followed by the Holm-Sidak post hoc test. The mean number of PTZ-injections needed to produce the first generalized seizure (≥ stage 3 convulsions) in the vehicle- versus compound-treated groups was statistically compared using a Mann-Whitney rank sum test. In fully kindled rats, the calculated mean seizure stage within a group after vehicle- and compound-treatment were compared using a paired t-test. P < 0.05 was the accepted minimum level of significance.

- plasma concentrations of CBZ on co-application of AFC ([3]; AFC 25 or 50 mg/kg s.c.): not significantly modulated
- concentration at 30 min ([3]; 7 mg/kg, n = 6, read-out: brain concentration of CBZ alone): 22.8 ± 1.5 µM
- concentration at 30 min ([3]; n = 6, significantly lowered, read-out: brain concentration of CBZ with AFC 25 mg/kg s.c.): 16.2 ± 0.6 µM
- concentration at 30 min ([3]; n = 6, significantly lowered, read-out: brain concentration of CBZ with AFC 50 mg/kg s.c.): 17.2 ± 1.7 µM
Compound: NC(=O)N1c2ccccc2C=Cc2ccccc21 [carbamazepine]
- increase of the electroconvulsive threshold [1]: about 50%
- mean seizure stage, post-drug [2]: 2.3
